Consider 11 molecules from ChEMBL document CHEMBL1201862, “PubChem BioAssay data set” (2004).

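Exposure lasted 48 hours, with cells grown in 96-well plates and compounds tested at five concentrations. GI50: concentration for 50% inhibition of growth.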 Active and inactive are the calls of the source. No stated cut-off is given here; in the data, active = GI50 up to about 1.1 µM and inactive = higher. Bounds are passed on as bounds.

Some test systems named below: DU-145; COLO 205; RPMI-8226; OVCAR-5; Malme-3M; HCT-116; SW-620; SF-268; M14; NCI-H522; T47D; HT-29; U-251; HOP-62; MDA-MB-435; SN12C; NCI-H460; KM12; BT-549; NCI-H226.
What all share (test): NCI anticancer screen, dose series, 48 h

As for `O=c1[nH]c(=O)n(COC(CO)CO)cc1-c1ccccc1`, the GI50 in the assay on DU-145, in the assay on COLO 205, with RPMI-8226, in the assay on OVCAR-5, with Malme-3M and in the assay on HCT-116 was > 100 µM (inactive) in each case. The GI50 with SW-620, in the assay on SF-268, in the assay with M14, in the assay with NCI-H522, in the assay with T47D and in the assay with HT-29 was > 100 µM (inactive) in each case. The GI50 with U-251, in the assay with HOP-62, in the assay on MDA-MB-435, in the assay on SN12C, in the assay on NCI-H460 and in the assay with KM12 was > 100 µM (inactive) throughout.

`COc1cc(C(=O)OCCn2[nH]c(-c3ccc(Cl)cc3)nc2=S)cc(OC)c1OC`: the GI50 is 23.6 µM (inactive) in the assay with DU-145; > 100 µM (inactive) with COLO 205; > 100 µM (inactive) with OVCAR-5; 45.5 µM (inactive) in the assay with Malme-3M; > 100 µM (inactive) in the assay with HCT-116; > 100 µM (inactive) in the assay with SW-620. Further, the GI50 with SF-268 is 34.3 µM (inactive); in the assay with M14 it was 38.3 µM (inactive); in the assay with NCI-H522, 27.7 µM (inactive); with BT-549, 31.3 µM (inactive); in the assay with NCI-H226 it was 58.7 µM (inactive); in the assay with HT-29, > 100 µM (inactive). For the same molecule, the GI50 is 83.8 µM (inactive) with U-251; > 100 µM (inactive) in the assay on HOP-62; 51.1 µM (inactive) in the assay with MDA-MB-435; 91.8 µM (inactive) with SN12C; > 100 µM (inactive) in the assay on NCI-H460; > 100 µM (inactive) in the assay with KM12.

On to `CCOC(=O)c1sc2[n+](c1C)C(=O)/C(=C/c1ccccc1Cl)S2`, for which the GI50 was 1.85 µM (inactive) in the assay on DU-145; 3.13 µM (inactive) in the assay on COLO 205; 0.54 µM (active) with RPMI-8226; 14.7 µM (inactive) in the assay with OVCAR-5; 11 µM (inactive) with Malme-3M; 0.627 µM (active) with HCT-116. In addition, the GI50 in the assay on SW-620 was 0.883 µM (active); with SF-268, 3.58 µM (inactive); with M14, 2.2 µM (inactive); in the assay with NCI-H522, 0.532 µM (active); in the assay on T47D, 15.3 µM (inactive); in the assay with NCI-H226 it was 0.953 µM (active). The GI50 was 3.44 µM (inactive) with HT-29; 0.583 µM (active) in the assay with U-251; 1.61 µM (inactive) in the assay on HOP-62; 0.281 µM (active) with MDA-MB-435; 14.3 µM (inactive) in the assay on SN12C; 0.65 µM (active) in the assay with NCI-H460. Also, in the assay with KM12, the GI50 was 0.425 µM (active).

As for `CC(C)C1(Cl)CCC2C3(C)CCCC(C)(C(=O)O)C3CC(Cl)C2(Cl)C1Cl` (stereo not drawn), the GI50 in the assay with COLO 205 was 18 µM (inactive); with RPMI-8226, 20.8 µM (inactive); with OVCAR-5, 22.4 µM (inactive); in the assay on Malme-3M, 25.5 µM (inactive); in the assay with HCT-116 it was 28.2 µM (inactive); in the assay with SW-620, 24.8 µM (inactive). Also, the GI50 was 45 µM (inactive) in the assay on SF-268; 23.1 µM (inactive) with M14; 20 µM (inactive) with NCI-H522; 48.8 µM (inactive) in the assay with BT-549; 20.9 µM (inactive) with NCI-H226; 14.7 µM (inactive) in the assay on HT-29. For the same molecule, the GI50 with U-251 is 20.7 µM (inactive); with MDA-MB-435 it was 25.9 µM (inactive); with SN12C it was 39.2 µM (inactive); with NCI-H460 it was 23.9 µM (inactive); in the assay on KM12 it was 18.2 µM (inactive).

For the molecule `CCN(CC)CCC1CCCCN1CC(=O)N1c2ccccc2NC(=O)CC1C` (stereo not drawn), the GI50 in the assay with DU-145, in the assay with COLO 205, in the assay with RPMI-8226, in the assay on OVCAR-5, in the assay on Malme-3M and in the assay on HCT-116 was > 100 µM (inactive) in each case. The GI50 in the assay with SF-268, in the assay with M14, in the assay on NCI-H522, with T47D, in the assay on NCI-H226 and with HT-29 was > 100 µM (inactive) throughout. Moreover, the GI50 with U-251, in the assay on HOP-62, in the assay on MDA-MB-435, in the assay with SN12C, in the assay on NCI-H460 and in the assay on KM12 was > 100 µM (inactive) in each case.

Turning to `O=C(CC(O)(C(F)(F)Cl)C(F)(F)Cl)CC(O)(C(F)(F)Cl)C(F)(F)Cl`, the GI50 in the assay with DU-145 was 0.515 µM (active); in the assay on COLO 205, 1.63 µM (inactive); in the assay on RPMI-8226, 0.516 µM (active); in the assay with Malme-3M, 0.483 µM (active); in the assay on HCT-116 it was 1.19 µM (inactive); in the assay with SW-620, 3.36 µM (inactive). In addition, the GI50 is 1.5 µM (inactive) with SF-268; 4.03 µM (inactive) in the assay on M14; 1.2 µM (inactive) in the assay with NCI-H522; 0.647 µM (active) in the assay on T47D; 1.33 µM (inactive) in the assay on NCI-H226; 1.65 µM (inactive) with HT-29. Besides, the GI50 was 1.65 µM (inactive) in the assay with U-251; 1.98 µM (inactive) with HOP-62; 1.69 µM (inactive) in the assay with MDA-MB-435; 4.65 µM (inactive) in the assay on SN12C; 1.24 µM (inactive) in the assay with NCI-H460; 3.04 µM (inactive) in the assay on KM12.

Consider `COC(=O)CCC(NC(=O)OC(C)(C)C)C(=O)NC(Cc1ccc(NC(=O)CCCC(C)=O)cc1)C(=O)NC(CCC(=O)OC)C(=O)OC` (stereo not drawn), for which the GI50 in the assay on DU-145, in the assay on COLO 205, in the assay with RPMI-8226, in the assay on OVCAR-5, in the assay with Malme-3M and with HCT-116 was > 100 µM (inactive) each time. Also, the GI50 in the assay on SW-620, in the assay on SF-268, in the assay with M14, in the assay with NCI-H522, in the assay with T47D and in the assay with NCI-H226 was > 100 µM (inactive) each time. The GI50 in the assay with HT-29, with HOP-62, in the assay with MDA-MB-435, with SN12C, with NCI-H460 and with KM12 was > 100 µM (inactive) in each case.

For the molecule `Nc1nnnn1NC(=O)NCCCl`, the GI50 in the assay with DU-145, in the assay on COLO 205, in the assay with RPMI-8226, in the assay with Malme-3M, with HCT-116 and in the assay on SW-620 was > 10 µM (inactive) in each case. For the same molecule, the GI50 in the assay on SF-268, in the assay with M14, in the assay with NCI-H522, with T47D, in the assay on NCI-H226 and in the assay on HT-29 was > 10 µM (inactive) throughout. For the same molecule, the GI50 in the assay with U-251, with HOP-62, in the assay with MDA-MB-435, in the assay on SN12C, in the assay on NCI-H460 and in the assay on KM12 was > 10 µM (inactive) throughout.

For the molecule `CCN(CC)CCC1CCCCN1CC(=O)N1c2ccccc2NC(=O)c2ccccc21` (stereo not drawn), the GI50 in the assay with DU-145, with COLO 205, in the assay with RPMI-8226, with OVCAR-5, in the assay with Malme-3M and in the assay with HCT-116 was > 100 µM (inactive) each time. The GI50 in the assay on SF-268, with M14, with NCI-H522, with T47D, in the assay with NCI-H226 and in the assay on HT-29 was > 100 µM (inactive) in each case. The GI50 with U-251, in the assay on HOP-62, with MDA-MB-435, in the assay with SN12C, with NCI-H460 and in the assay on KM12 was > 100 µM (inactive) in each case.

Consider `Nc1nc(Cl)c(CO)c(NCC2(CO)CC(CCc3ccccc3)C2)n1` (stereo not drawn), for which the GI50 is 22.6 µM (inactive) in the assay with DU-145; 14.5 µM (inactive) in the assay with COLO 205; 3.5 µM (inactive) in the assay with RPMI-8226; 29.2 µM (inactive) in the assay with OVCAR-5; 14.2 µM (inactive) in the assay with Malme-3M; 0.979 µM (active) in the assay with HCT-116. Besides, the GI50 with SW-620 was 19.6 µM (inactive); in the assay on SF-268 it was 43.1 µM (inactive); with NCI-H522 it was 15.7 µM (inactive); in the assay on BT-549 it was 15.4 µM (inactive); with NCI-H226, 13.3 µM (inactive); with HT-29, 22.2 µM (inactive). Moreover, the GI50 was 26.2 µM (inactive) in the assay with U-251; 25.4 µM (inactive) in the assay with HOP-62; 11.5 µM (inactive) in the assay on MDA-MB-435; 31.1 µM (inactive) with SN12C; 13.1 µM (inactive) with NCI-H460; 0.264 µM (active) with KM12.

For `COc1cc2c(c(OC)c1OC)-c1ccc(OC)c(=O)cc1[C@@H](NC(=O)c1ccccc1)CC2`, the GI50 with DU-145 is 0.0199 µM (active); in the assay on COLO 205, < 0.01 µM (active); in the assay on RPMI-8226 it was 0.0608 µM (active); in the assay with OVCAR-5, 1.07 µM (active); in the assay on Malme-3M, 0.016 µM (active); with HCT-116 it was 0.0126 µM (active). The GI50 with SW-620 is 0.0119 µM (active); in the assay on SF-268, 0.0154 µM (active); with M14 it was 0.0118 µM (active); with NCI-H522 it was 0.0114 µM (active); in the assay with T47D it was 58.3 µM (inactive); with NCI-H226, 0.067 µM (active). Also, the GI50 was 0.0114 µM (active) in the assay with HT-29; 0.0147 µM (active) in the assay on U-251; 0.0379 µM (active) in the assay with HOP-62; < 0.01 µM (active) with MDA-MB-435; 0.0146 µM (active) with SN12C; 0.0106 µM (active) with KM12.
